Assay results: the NIST ThermoML archive (doi:10.1021/je0503204)

Conditions: Liquid; for speed of sound: Pulse-echo method

CCCCCCCl [1-chlorohexane]
Conditions	mass density, 293.15 K [kg/m3]	mass density, 313.15 K [kg/m3]	mass density, 333.15 K [kg/m3]	mass density, 353.15 K [kg/m3]	speed of sound, 293.15 K [m/s]	speed of sound, 313.15 K [m/s]	speed of sound, 333.15 K [m/s]	speed of sound, 353.15 K [m/s]
100 kPa	878.5	859.4	840.3	821.3	1219.1	1140.7	1068.8	995
5000 kPa	884.2	865	847.1	828.1	1240.5	1166.4	1097.1	1026.2
9910 kPa	887	869.8	851.9	833.7	1264.5	1191.8	1124.4	1055.4
19720 kPa	894.7	878.3	861.5	844.5	1310	1240.1	1176	1110.7
29530 kPa	901.8	886.2	870.3	854.3	1352.6	1285.3	1224	1162
39340 kPa	908.4	893.4	878.3	863.1	1392.6	1327.6	1268.8	1209.8
49150 kPa	914.6	900.1	885.7	871.2	1430.1	1367.4	1310.8	1254.5
58960 kPa	920.4	906.4	892.6	878.7	1465.7	1405	1350.4	1296.3
68770 kPa	925.9	912.3	899	885.6	1499.3	1440.6	1387.7	1335.8
78580 kPa	931.1	917.9	905	892.1	1531.5	1474.6	1423.2	1373
88390 kPa	936	923.1	910.7	898.2	1562.3	1507	1457	1408.3
98200 kPa	940.7	928.1	916	–	1591.9	1538	1489.4	–
108000 kPa	945.1	932.8	921.1	–	1620.6	1567.9	1520.4	–
117800 kPa	949.4	937.3	925.9	–	1648.2	1596.7	1550.3	–
127600 kPa	953.4	941.6	930.4	–	1675.2	1624.5	1579.1	–
137400 kPa	957.3	945.7	934.8	–	1701.5	1651.4	1607	–
147200 kPa	961.1	949.7	939	–	1727.1	1677.5	1633.9	–
157100 kPa	964.7	953.5	943	–	1752.2	1702.6	1659.9	–
166900 kPa	968.1	957.1	946.8	–	1776.7	1726.9	1684.9	–
176700 kPa	971.5	960.6	950.5	–	1800.6	1750.3	1708.9	–
186500 kPa	974.7	964	954	–	1824	1772.6	1731.8	–
196300 kPa	977.9	967.2	957.4	–	1846.5	1793.6	1753.5	–
